Test [1] addresses T1, hEP2/Gqs5 (Homo sapiens, UniProt P43116).
T1 construct: expressed in transfected cells; host or cells: HEK-293(EBNA)
The test can be described thus: FLIPR calcium signal, hEP2. Format: cell-based. The procedure, abridged:
(§1)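 HEK-293(EBNA) cells stably expressing the recombinant human receptor were loaded with 2 μM Fluo-4 AM for 45 min and read on FLIPR at 37° C in HBSS-HEPES pH 7.4. Peak fluorescence rise was expressed relative to buffer and standard agonist controls (BW245C, PGE2 or U-46619 by receptor); compounds were run 10^−5 to 10^−11 M in duplicate, n≧3.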

The target in test [2] is T2, hEP3A/Gqi5 (Homo sapiens, UniProt P43115).
T2 construct: expressed in transfected cells; host or cells: HEK-293(EBNA)
T2 sequence (P43115 1-390): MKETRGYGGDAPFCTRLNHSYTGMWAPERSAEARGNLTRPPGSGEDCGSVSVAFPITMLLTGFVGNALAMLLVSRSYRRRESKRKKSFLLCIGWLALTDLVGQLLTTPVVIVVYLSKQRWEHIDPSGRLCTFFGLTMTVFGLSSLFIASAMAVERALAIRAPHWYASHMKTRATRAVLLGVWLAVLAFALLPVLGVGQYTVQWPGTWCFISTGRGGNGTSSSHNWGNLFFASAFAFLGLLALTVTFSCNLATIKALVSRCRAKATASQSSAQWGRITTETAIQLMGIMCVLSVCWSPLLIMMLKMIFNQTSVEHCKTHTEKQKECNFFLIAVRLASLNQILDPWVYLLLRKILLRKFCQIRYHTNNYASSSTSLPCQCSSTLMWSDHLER
The test can be described thus: FLIPR calcium signal, hEP3A. The test is classed as cell-based. Conditions: FLIPR Ca2+ signal, HEK-293(EBNA); read-out: FUNCTIONAL EC50 HEP3A. The procedure:
(§2) HEK-293(EBNA) cells, stably expressing one type or subtype of recombinant human prostaglandin receptors (prostaglandin receptors expressed: hDP/Gqs5; hEP1; hEP2/Gqs5; hEP3A/Gqi5; hEP4/Gqs5; hFP; hIP; hTP), were cultured in 100 mm culture dishes in high-glucose DMEM medium containing 10% fetal bovine serum, 2 mM 1-glutamine, 250 μg/ml geneticin (G418) and 200 μg/ml hygromycin B as selection markers, and 100 units/ml penicillin G, 100 μg/ml streptomycin and 0.25 μg/ml amphotericin B. • (b) Calcium Signal Studies on the FLIPR™
(§3) Cells were seeded at a density of 5×10^4 cells per well in Biocoat® Poly-D-lysine-coated black-wall, clear-bottom 96-well plates (Becton-Dickinson) and allowed to attach overnight in an incubator at 37° C. Cells were then washed two times with HBSS-HEPES buffer (Hanks Balanced Salt Solution without bicarbonate and phenol red, 20 mM HEPES, pH 7.4) using a Denley Cellwash plate washer (Labsystems). After 45 minutes of dye-loading in the dark, using the calcium-sensitive dye Fluo-4 AM at a final concentration of 2 μM, plates were washed four times with HBSS-HEPES buffer to remove excess dye leaving 100 μl in each well. Plates were re-equilibrated to 37° C. for a few minutes.
(§4) Cells were excited with an Argon laser at 488 nm, and emission was measured through a 510-570 nm bandwidth emission filter (FLIPR™, Molecular Devices, Sunnyvale, Calif.). Drug solution was added in a 50 μl volume to each well to give the desired final concentration. The peak increase in fluorescence intensity was recorded for each well. On each plate, four wells each served as negative (HBSS-HEPES buffer) and positive controls (standard agonists: BW245C (hDP); PGE2 (hEP1; hEP2/Gqs5; hEP3A/Gqi5; hEP4/Gqs5); PGF2α (hFP); carbacyclin (hIP); U-46619 (hTP), depending on receptor). The peak fluorescence change in each drug-containing well was then expressed relative to the controls.
(§5) Compounds were tested in a high-throughput (HTS) or concentration-response (CoRe) format. In the HTS format, forty-four compounds per plate were examined in duplicates at a concentration of 10^−5 M. To generate concentration-response curves, four compounds per plate were tested in duplicates in a concentration range between 10^−5 and 10^−11 M. The duplicate values were averaged. In either, HTS or CoRe format each compound was tested on at least 3 separate plates using cells from different passages to give an n≧3.

The target of test [3] is T3, hEP4/Gqs5 (Homo sapiens, UniProt P35408).
T3 construct: expressed in transfected cells; host or cells: HEK-293(EBNA)
The test can be described thus: FLIPR calcium signal, hEP4. The test is classed as cell-based. In outline: as §1

The target of test [4] is T4, hTP (Homo sapiens, UniProt P21731).
T4 construct: expressed in transfected cells; host or cells: HEK-293(EBNA)
T4 sequence (P21731 1-343): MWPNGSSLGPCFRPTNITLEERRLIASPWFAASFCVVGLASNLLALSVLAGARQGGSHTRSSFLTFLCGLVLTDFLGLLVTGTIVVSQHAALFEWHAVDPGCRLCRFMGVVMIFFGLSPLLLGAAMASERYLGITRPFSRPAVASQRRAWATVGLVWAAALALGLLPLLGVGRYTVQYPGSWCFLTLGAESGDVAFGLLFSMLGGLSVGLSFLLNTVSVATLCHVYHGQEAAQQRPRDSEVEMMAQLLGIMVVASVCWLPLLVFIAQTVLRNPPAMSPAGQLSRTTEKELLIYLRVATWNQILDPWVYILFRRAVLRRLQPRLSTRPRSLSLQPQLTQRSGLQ
The test can be described thus: FLIPR calcium signal, hTP. The test is classed as cell-based. As to the method: as §2, §3, §4, §5

The target of test [5] is T5, human EP2 receptors (Homo sapiens, UniProt P43116).
T5 construct: expressed in transfected cells; host or cells: HEK 293
Briefly: Competition radioligand binding ([3H]PGE2), EP2.

In test [6] the target is T6, EP4 receptors (Homo sapiens, UniProt P35408).
T6 construct: expressed in transfected cells; host or cells: HEK-293
The test can be described thus: Radioligand binding ([3H]PGE2), EP4. As to the method: HEK-293 cells stably expressing the human or feline FP receptor, or EP1, EP2, or EP4 receptors were washed with TME buffer, scraped from the bottom of the flasks, and homogenized for 30 sec using a Brinkman PT 10/35 polytron. TME buffer was added to achieve a final 40 ml volume in the centrifuge tubes (the composition of TME is 100 mM TRIS base, 20 mM MgCl2, […]; 10N HCl is added to achieve a pH of 7.4).
The cell homogenate was centrifuged at 19000 r.p.m. for 20 min at 4° C. using a Beckman Ti-60 rotor. The resultant pellet was resuspended in TME buffer to give a final 1 mg/ml protein concentration, as determined by Biorad assay. Radioligand binding competition assays vs. [^3H-]17 —phenyl PGF2α (5 nM) were performed in a 100 μl volume for 60 min. Binding reactions were started by adding plasma membrane fraction. The reaction was terminated by the addition of 4 ml ice-cold TRIS-HCl buffer and rapid filtration through glass fiber GF/B filters using a Brandel cell harvester. The filters were washed 3 times with ice-cold buffer and oven dried for one hour.
[^3H-] PGE2 (specific activity 180 Ci mmol) was used as the radioligand for EP receptors. [^3H] 17-phenyl PGF2α was employed for FP receptor binding studies. Binding studies employing EP1, EP2, EP4 and FP receptors were performed in duplicate in at least three separate experiments. A 200 μl assay volume was used. Incubations were for 60 min at 25° C. and were terminated by the addition of 4 ml of ice-cold 50 mM TRIS-HCl, followed by rapid filtration through Whatman GF/B filters and three additional 4 ml washes in a cell harvester (Brandel). Competition studies were performed using a final concentration of 5 nM [^3H]—PGE2, or 5 nM [^3H] 17-phenyl PGF2α and non-specific binding determined with 10^−5M of unlabeled PGE2, or 17-phenyl PGF2α, according to receptor subtype studied.

The target in test [7] is T7, hDP/Gqs5 (Homo sapiens, UniProt Q13258).
T7 construct: expressed in transfected cells; host or cells: HEK-293(EBNA)
T7 sequence (Q13258 1-359): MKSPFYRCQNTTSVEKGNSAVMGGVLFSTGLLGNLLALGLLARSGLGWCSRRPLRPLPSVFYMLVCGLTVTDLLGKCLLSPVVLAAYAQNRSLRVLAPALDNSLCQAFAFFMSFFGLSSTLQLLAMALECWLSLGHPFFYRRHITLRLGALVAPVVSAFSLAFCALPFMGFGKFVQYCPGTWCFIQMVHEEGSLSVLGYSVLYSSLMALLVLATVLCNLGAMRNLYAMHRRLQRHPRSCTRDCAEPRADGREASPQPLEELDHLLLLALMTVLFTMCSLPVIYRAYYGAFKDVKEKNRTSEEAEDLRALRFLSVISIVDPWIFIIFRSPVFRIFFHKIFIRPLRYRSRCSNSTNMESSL
Briefly: FLIPR calcium signal, hDP. Format: cell-based. The note with it: read-out: Other Receptors EC50 hDP. As to the method: as §2, §3, §4, §5

Test [8] concerns the target T8, HEK-EBNA cells expressing a PG EP2 receptor subtype (Homo sapiens, UniProt P43116).
T8 construct: expressed in transfected cells; host or cells: HEK-EBNA
The test can be described thus: cAMP assay, EP2. The test is classed as cell-based. The note with it: unit inferred; read-out: EP2 data cAMP EC50. As to the method: A 384-well drug plate was prepared to contain 6 test compounds, PGE2 and cAMP in 16 serial dilutions in triplicate, using a Biomek station. HEK-EBNA cells expressing a target PG receptor subtype (EP2 or EP4) were suspended in a stimulation buffer (HBSS, 0.1% BSA, 0.5 mM IBMX and 5 mM HEPES, pH 7.4) in a density of 10^4 cells/5 μl. The reaction was initiated by mixing 5 μL drug dilutions with 5 μl of HEK-EBNA cells in a well, carried out for 30 min at room temperature, and followed by the addition of 5 μl anti-cAMP acceptor beads in the control buffer with Tween-20 (25 mM NaCl, 0.03% Tween-20, 5 mM HEPES, pH7.4). After 30 min in the dark at room temperature, the mixtures were incubated with 15 μl biotinylated-cAMP/strepavidin donor beads in Lysis/Detection buffer (0.1% BSA, 0.3% Tween-20 and 5 mM HEPES, pH7.4) for 45 min at the room temperature. Fluorescence changes were read using a Fusion-alpha HT microplate reader.
Background: Cyclic AMP is a second messenger, typically raised through Gs and lowered through Gi signalling.

[9] abbreviates: FLIPR Ca2+ signal, HEK-293(EBNA), read-out: FUNCTIONAL EC50 HEP2.
Where [10] appears, read: FLIPR Ca2+ signal, HEK-293(EBNA), read-out: FUNCTIONAL EC50 HTP.

Read-outs that look alike come from different tables or passages of the source.

T1 sequence (P43116 whole entry): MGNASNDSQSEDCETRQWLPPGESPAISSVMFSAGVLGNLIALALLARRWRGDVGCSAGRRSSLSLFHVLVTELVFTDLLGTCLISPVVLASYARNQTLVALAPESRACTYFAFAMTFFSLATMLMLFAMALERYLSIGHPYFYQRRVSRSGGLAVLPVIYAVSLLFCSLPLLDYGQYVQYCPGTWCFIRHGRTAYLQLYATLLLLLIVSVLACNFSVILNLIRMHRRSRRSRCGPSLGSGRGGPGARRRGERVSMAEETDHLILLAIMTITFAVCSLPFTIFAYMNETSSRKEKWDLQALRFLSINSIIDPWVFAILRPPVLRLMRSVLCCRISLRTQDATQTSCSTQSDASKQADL
T5 sequence (P43116 whole entry): as above
T3 sequence (P35408 whole entry): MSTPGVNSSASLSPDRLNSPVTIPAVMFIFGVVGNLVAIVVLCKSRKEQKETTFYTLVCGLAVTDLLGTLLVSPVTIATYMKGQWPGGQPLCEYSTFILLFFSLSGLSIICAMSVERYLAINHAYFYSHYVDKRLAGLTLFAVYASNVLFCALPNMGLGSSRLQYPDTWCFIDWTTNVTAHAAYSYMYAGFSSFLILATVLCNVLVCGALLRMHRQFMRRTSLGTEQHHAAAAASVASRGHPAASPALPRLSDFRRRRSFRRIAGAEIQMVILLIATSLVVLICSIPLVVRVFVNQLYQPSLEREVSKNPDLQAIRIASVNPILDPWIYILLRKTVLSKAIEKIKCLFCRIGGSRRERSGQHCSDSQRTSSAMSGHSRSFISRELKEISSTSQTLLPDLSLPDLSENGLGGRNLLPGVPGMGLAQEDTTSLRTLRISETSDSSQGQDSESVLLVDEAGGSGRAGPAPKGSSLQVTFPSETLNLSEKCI
T6 sequence (P35408 whole entry): as above
T8 sequence (P43116 whole entry): as the sequence (P43116 whole entry) above

For the molecule `COC(=O)CCCCCC[C@H]1C(=O)C[C@@H](O)[C@@H]1c1ccc2c(c1)CCC2`, the EC50 (as a rule, the concentration that produces a half-maximal response) is > 10000 nM in test [1] (setting [9]); > 10 µM in test [2]; > 10 µM in test [3] (FLIPR Ca2+ signal, HEK-293(EBNA), read-out: FUNCTIONAL EC50 HEP4); > 10 µM in test [4] (setting [10]).
With `CCCC1(C(O)c2ccc([C@H]3[C@H](O)CC(=O)[C@@H]3C/C=C\CCCC(=O)OC)cc2)CCC1` (some centres unmarked), in test [4] (setting [10]), the EC50 was > 10 µM.
As for `O=C(O)CCCCCC[C@@H]1[C@@H](c2ccc3c(c2)CCC3O)[C@H](O)C[C@H]1Cl` (some centres unmarked), in test [5] (read-out: BINDING IC50 HEP2), the IC50 (in general, the point on the concentration scale where inhibition reaches its midpoint) was 13.1 µM. The EC50 in test [1] (setting [9]) was 529 nM; in test [4] (setting [10]), 2.99 µM.
Consider `COC(=O)CCCCCC[C@@H]1[C@@H](c2ccc3c(c2)CCC3)[C@H](O)C[C@H]1Cl`, for which, in test [6] (read-out: BINDING IC50 HEP4), the IC50 was found to be 13.1 µM. For the same molecule, in test [4] (setting [10]), the EC50 was 0.506 µM.
For the molecule `O=C(O)CCCCCC[C@H]1C(=O)C[C@@H](O)[C@@H]1c1ccc2c(c1)CCC2O` (some centres unmarked), the EC50 in test [4] (setting [10]) is > 10 µM.
With `COC(=O)CCCCCC[C@@H]1[C@@H](c2ccc(C3(O)CCC3)cc2)[C@H](O)C[C@H]1Cl`, the EC50 was > 10000 nM in test [1] (setting [9]) and > 10 µM in test [4] (setting [10]).
As to `CCC(O)c1ccc(N2C(=O)CC[C@@H]2COCc2ccc(C(=O)O)s2)cc1` (some centres unmarked), the Ki (in general, the equilibrium dissociation constant of an inhibitor or competing ligand from its target) in test [5] (unit inferred, read-out: EP2 data Ki) is 5.73 µM; in test [6] (unit inferred, read-out: EP4 data KI), > 10 µM. In addition, the EC50 was 1810 nM in test [1] (unit inferred, other columns of the table in nM, read-out: EP2 data flipr EC50); > 10 µM in test [3] (unit inferred, read-out: EP4 data flipr EC50); 7.56 µM in test [7]; 0.312 µM in test [8].
`CCCC1([C@@H](O)c2cccc([C@H]3CCC(=O)[C@@H]3C/C=C\CCCC(=O)OC)c2)CCC1`: the EC50 in test [4] (read-out: FUNCTIONAL Ca2+ EC50 HTP) is > 10 µM.

Source of the values: patent publication US7799821B2, “Therapeutic compounds” (Allergan, Inc., priority 2004, dated 2010).
